Results as given in patent US20240050498A1, “SYNERGISTIC COMPOSITION OF PHAGES AND ITS FORMATION METHOD” (Proteon Pharmaceuticals S.A., priority 2020, published 2024).

How the values were obtained:
selected APEC strains = test: Sensitivity of all selected APEC strains to drugs (disk diffusion) and to BAFACOL, summary; format: cell-based, Escherichia coli; conditions: all 12 selected strains
Protocol: BAFACOL preparation with the total titer of 1×10^8 PFU/ml was used in the tests.
(§1) The drug sensitivity of APEC strains was tested with a disk diffusion method, according to CLSI recommendations (Clinical Laboratory Standards Institute; 2008 document: Performance standards for antimicrobial disk and dilution susceptibility tests for bacteria isolated from animals; approved standard, 3rd Ed. CLSI document M31-A3. Clinical and Laboratory Standards Institute, Wayne, PA.). The disk diffusion method used disks soaked with 10 selected drugs (Table 9).
The other tested APEC strains were resistant to 6-8 test antimicrobial drugs.

E. coli strain 130PP2017 = test: Sensitivity of APEC strain to drugs (disk diffusion) and to BAFACOL; format: cell-based, Escherichia coli; conditions: CLSI, disk content as in column head
Protocol: as §1, with “[…]-A3.” for “M31-A3.”

APEC strains = conditions: nearly 150 APEC strains, in vitro [Oliviera A. et al., 2009]; cited from earlier work

Row | SMILES | Drug sensitivity of all selected APEC strains (selected APEC strains) | also measured
1 | CC1(C)S[C@@H]2[C@H](NC(=O)[C@H](N)c3ccccc3)C(=O)N2[C@H]1C(=O)O [Ampicillin] | resistant | 
2 | CN[C@@H]1[C@@H](O[C@H]2O[C@H](CO)[C@@H](N)[C@H](O)[C@H]2O)OC2C[C@@H](N)[C@@H](O[C@H]3[C@H](O)[C@@H](O)[C@H](N)C[C@@H]3N)OC2[C@@H]1O (some centres unmarked) [Apramycin] |  | Sensitivity to drug (R/I/S) (E. coli strain 130PP2017): sensitive
3 | CCn1cc(C(=O)O)c(=O)c2ccc(C)nc21 [Nalidixic acid] | resistant | 
4 | [H]/N=C(/N)N[C@H]1[C@H](O)[C@@H](O)[C@H](O[C@@H]2O[C@@H](C)[C@](O)(C=O)[C@H]2O[C@@H]2O[C@@H](CO)[C@H](O)[C@@H](O)[C@@H]2NC)[C@@H](N/C(N)=N\[H])[C@@H]1O [Streptomycin] | resistant | 
5 | CCN1CCN(c2cc3c(cc2F)c(=O)c(C(=O)O)cn3C2CC2)CC1 [enrofloxacin] |  | Share of studied APEC strains that were sensitive (APEC strains): more than 50%
